The structures appear in SMILES notation. Some results are limits rather than exact numbers.

In turn, `COc1ccc(C2=NN(CCCCBr)C(=O)[C@H]3CC=CC[C@@H]23)cc1Cl` (relative stereo) had a melting point of 109 to 111 °C.

For `O=C(Nc1ccc(S(=O)(=O)N2CCOCC2)cc1)c1cc(N2CCOCC2)ccc1[N+](=O)[O-]`, the melting point was determined as 252 °C.

For the molecule `COC(=O)CCN1CCC(=C2c3sccc3CCn3ccnc32)CC1`, the melting point came to 108 °C.

Take `Cn1ccc(NC(=O)Nc2cccc3c2C2CC4(CCN2C3=O)SCCS4)n1` (centres undefined): the melting point was found to be 135 °C.

In the case of `O=C(c1ccco1)n1sc2ccccc2c1=O`, the melting point was in the range of 157 to 161 °C.

On to `CCC(=O)N1N=C(c2ccc([N+](=O)[O-])c(C)c2)c2cc3c(cc2CC1(C)C#N)OCO3` (centres undefined), for which the melting point lay within 191 to 193 °C.

Take `COc1c(Cl)cc2c(N)nc(N3CCN(C(=O)C4CCCO4)CC3)nc2c1OC` (centres undefined): the melting point was in the range of 192 to 193 °C.

In the case of `c1ccc(C2Cn3c(nc4cc5ccccc5cc43)S2)nc1` (centres undefined), the melting point worked out at 198 °C.

Take `CCOC(=O)C1=C(NC(=O)Nc2cc(C(=O)OC(C)C)c(Br)cc2F)CCC1`: the melting point was 150 to 154 °C.

The molecule `CCOC(=O)C(C(=O)CCCC(C)C)C1c2ccccc2C(=O)N1c1ccc2ccc(Cl)nc2n1` (centres undefined) showed a melting point of 135 °C.

In turn, `N#Cc1nn(-c2c(Cl)cc(C(F)(F)F)cc2Cl)c(N2CCCCC2)c1S(=O)(=O)C(F)(F)F` came in with a melting point of 153 to 155 °C.

`COc1cc2nc(-c3cc(C)c(OCCO)c(C)c3)[nH]c(=O)c2cc1OC` gave a melting point of more than 300 °C.

In the case of `O=C1C(c2cccc(C(F)(F)F)c2Cl)=NN(CCCCC(F)(F)F)C2C=C(Cl)C=CC12` (centres undefined), the melting point lay within 137 to 138 °C.

Take `Cc1ccccc1CCOS(N)(=O)=O`: the melting point was in the range of 50 to 52 °C.

Regarding `Cc1sc(-c2cc([N+](=O)[O-])cc([N+](=O)[O-])c2)nc1O`, the melting point is 247 to 248 °C.

`O=C(O)CC[C@@H](Cc1cn(Cc2ccccc2)c2ccccc12)NC(=O)CCCCCCc1ccccc1`: the melting point fell in the range of 130 to 132 °C.

`N#CC1CN1Cc1ccc(C(=O)O)s1` (centres undefined) came in with a melting point of 108 to 111 °C.

As to `CCOC(=O)c1cn(C)c2nc3c(F)c(F)c(F)cc3cc2c1=O`, the melting point stood at 320 °C.

Molecule `NC(=O)c1cc2c(Oc3ccc(C(=O)N4CCOCC4)cc3)cncc2s1` returned a melting point of more than 260 °C.

`Clc1ccccc1-c1n[nH]c(SCc2ccccc2)n1` came in with a melting point of 84 to 86 °C.

With `O=C(c1ccccc1)c1cccc(-c2cccc(Cn3cncn3)c2)c1`, the melting point was found to be 121 °C.

Regarding `COc1ccc(C(C)C)cc1-c1cc(C(=O)NC2CCN(C(=O)OC(C)(C)C)CC2)c(OCc2ccccc2)cc1OCc1ccccc1`, the melting point lay within 168 to 170 °C.

The molecule `Cc1cc(-c2cccc(C(=O)CC(=O)Nc3cc(-c4ccc(F)cc4)ccc3NC(=O)OC(C)(C)C)c2)on1` came in with a melting point of 100 to 101 °C.

In turn, `CCCCOc1cc(CNCCN(CC)CC)cc(S(N)(=O)=O)c1Cc1ccccc1` came in with a melting point of 89 to 93 °C.

In turn, `COC(=O)c1cc(-c2ccccc2)c(=O)n2c1-c1sccc1CC2` had a melting point of 116 °C.

For the molecule `CC(C)(C)C(=O)Nc1ncccc1CNC1CCN(Cc2ccccc2)CC1`, the melting point was 138 °C.

Consider `Cc1cc([N+](=O)[O-])c2[nH]cc(CO)c(=O)c2c1`, for which the melting point was more than 240 °C.

The molecule `CCN(CC)CCNC(=O)c1cccc2c(=O)c(C)c(-c3cccc(C)c3)oc12` displayed a melting point of 79.5 to 86 °C.

`Cc1cc(NCCO)c([N+](=O)[O-])cc1O` gave a melting point of 174 °C.

With `O=C(NCCCSc1ccncc1)c1ccsc1`, the melting point was in the range of 121 to 122 °C.

`CC(C)Oc1nc(-c2ccc(=O)n(C(C)C)n2)c(-c2ccccc2)nc1N` displayed a melting point of 198 to 200 °C.

`C#CC1(COCc2ccccc2)OC(n2ccc(=O)[nH]c2=O)C(OC(C)=O)C1OCc1ccccc1` (centres undefined) yielded a melting point of 105 to 106 °C.

In the case of `CC(=O)NCC1CN(c2ccc(N3CCN(c4nc(C)ns4)CC3)c(F)c2)C(=O)O1` (centres undefined), the melting point lay in the range of 168 to 170 °C.

Take `CC1Cc2cc3c(cc2C(C=Cc2ccc(F)cc2)=NN1)OCO3` (centres undefined): the melting point lay in the range of 170 to 174 °C.

In turn, `NCCSC[C@H]1O[C@@H](n2cnc3c(NCc4ccc([N+](=O)[O-])cc4)ncnc32)[C@H](O)[C@@H]1O` yielded a melting point of 115 to 117 °C.

`COc1ccc(-c2cc3ccccc3[nH]2)cc1NCc1ccc([N+](=O)[O-])c(O)c1` had a melting point of 134 to 135 °C.

Consider `CCOC(=O)c1c(C(F)(F)F)nc(C(F)(F)F)c(C(=O)OC)c1Cl`, for which the melting point was 46 to 48 °C.

In the case of `O=C(CNc1c(C(=O)O)[nH]c2cc(Cl)cc(Cl)c12)c1ccc(Cl)cc1`, the melting point was in the range of 279 to 283 °C.

For the molecule `CC1CC=C(c2nnn[nH]2)CN1CC(=O)O` (centres undefined), the melting point lay in the range of 136 to 138 °C.

For `N#Cc1ccc(OCCCCCCOc2cccc(-c3cc4cc(C#N)ccc4o3)c2)cc1`, the melting point is 134 to 136 °C.

For `O=c1[nH]c2ccccc2n1C1CCN(CCCOc2ccc(F)cc2Cl)CC1`, the melting point was in the range of 149 to 150 °C.

For `CCNc1cccnc1N1CCN(C(=O)c2ccc(C(=O)O)cn2)CC1`, the melting point lay in the range of 155 to 157 °C.

Consider `O=C(Nc1ccc(F)c(F)c1)c1cc(-c2ccc(F)cc2F)ccc1O`, for which the melting point lay in the range of 231 to 232 °C.

In the case of `CC(C)(C)c1cc(-c2csc(CNC(=O)c3ccccc3)n2)cc(C(C)(C)C)c1O`, the melting point was in the range of 200 to 201 °C.

`Brc1ccc2c(c1)C(c1ccc(Oc3ccccc3)cc1)(c1ccc(Oc3ccccc3)cc1)c1cc(Br)ccc1-2`: the melting point lay in the range of 178 to 180 °C.

`CN1CC2(COc3cc4c(cc32)OCO4)c2c(Br)cccc21` (centres undefined) displayed a melting point of 155 to 157 °C.

Regarding `CNc1nc(-c2ccc(Cl)c(Cl)c2)cs1`, the melting point lay within 220 to 221 °C.

In turn, `COc1ccc(Nc2nc(NC3CCCCCC3)nc(Oc3ccc(C=O)cc3)n2)cc1Cl` had a melting point of 218 to 220 °C.

Consider `Cc1cccc(NC(=O)NCC(=O)N(CC(=O)OC(C)(C)C)c2ccccc2OC(F)(F)F)c1`, for which the melting point stood at 163 °C.

Take `Cc1ccc(N2C(=O)NC(=O)C23CCNCC3)cc1`: the melting point lay within 128 to 130 °C.

Molecule `CCOC(=O)c1c2n(c3cc(Br)c(F)cc3c1=O)C(C)CS2` (centres undefined) gave a melting point of 211 °C.

Consider `CC(=O)CCCSc1cc(C(C)(C)C)c(O)c(C(C)(C)C)c1`, for which the melting point lay in the range of 65 to 67 °C.

The molecule `CCc1cc(Cc2cc(C)c(N)c(CC)c2)cc(C)c1N` gave a melting point of 85 to 86 °C.

Molecule `CN(C)c1nc2c(c(=O)[nH]1)CC(S(=O)(=O)c1ccccc1)CC2` (centres undefined) showed a melting point of 249 °C.

For `CCCCc1nc(Sc2ccc(OC)cc2)c(C(=O)OCC)[nH]1`, the melting point amounted to 96 °C.

As for `Cc1ccc(C(=O)c2cc(C(C)(C)C)c(O)c(C(C)(C)C)c2)c(Cl)n1`, the melting point was 116 to 117 °C.

On to `N#Cc1c(NCCCn2ccnc2)cccc1Oc1ccc(-c2cn(C3CCOC3)c3ncnc(N)c23)cc1` (centres undefined), for which the melting point was determined as 110 °C.

In the case of `CC(=O)c1ccc2c(c1)C(Cc1ccccc1)=CC(=CCl)CO2`, the melting point is 89 to 94 °C.

Take `O=C(O)c1cccnc1N1CCN(CCOC2c3ccccc3CSc3ccccc32)CC1` (centres undefined): the melting point lay in the range of 217 to 218 °C.

`Cc1ccc(Nc2ccccc2[N+](=O)[O-])c(C#N)c1` had a melting point of 135 to 139 °C.

On to `Cc1cn(C2COC(CO)C(O)C2)c(=O)[nH]c1=O` (centres undefined), for which the melting point fell in the range of 87 to 89 °C.

As to `C[C@@H](c1ccccc1)N1CC[C@@H](C2(N(Cc3ccccc3)Cc3ccccc3)CC2)C1`, the melting point was 61 to 61.3 °C.

As for `Cc1cccc2c1N(CC(=O)N1CC3CCC(CC3)C1)C(=O)C(NC(=O)Nc1cccc(Cl)c1)N=C2c1ccccc1F` (centres undefined), the melting point was more than 250 °C.

The molecule `COc1cccc(NC(=O)c2ccccc2[N+](=O)[O-])c1` came in with a melting point of 156 to 158 °C.

The molecule `N#Cc1ccc(OCCCCOc2ccc(-c3cc4cc(C#N)ccc4o3)cc2)cc1` yielded a melting point of 186 to 188 °C.

Molecule `CCOC(=O)c1cc2ccccc2n(-c2c(Cl)cccc2Cl)c1=N` registered a melting point of 169 to 170 °C.

As to `CC(=O)C1(c2ccc(Br)cc2)C=CC=CC1` (centres undefined), the melting point lay within 126 to 128 °C.

`O=C(O)CN1C(=O)C(c2ccccc2)SC1=S` (centres undefined) registered a melting point of 158 to 159 °C.

In the case of `Cc1c(-c2ccccc2Cl)sc2nc(N)[nH]c(=O)c12`, the melting point fell in the range of 334 to 336 °C.

As to `COC(=O)c1ccc(Cn2c(C(F)(F)F)nc3cc(C)c(C)cc32)cc1`, the melting point lay in the range of 150 to 152 °C.

`CC(C)(C)c1cc(-c2ccccc2NC(=O)CCCC(=O)O)cc(C(C)(C)C)c1O` registered a melting point of 132 to 134 °C.

`Cc1noc(NS(=O)(=O)c2ccccc2-c2ccc(-c3ncco3)cc2CN(C(=O)C(C)C)C2CC2)c1C`: the melting point fell in the range of 110 to 120 °C.

The molecule `CCN(CC)C(=O)CCc1nc(-c2cccs2)nc2ccccc12` displayed a melting point of 106 °C.

`CC(C)n1nc(-c2c(OCC(=O)N(C)C)nc(N)nc2-c2ccccc2)ccc1=O`: the melting point was in the range of 133 to 136 °C.

As for `CCOC(=O)c1c(Cn2cnnc2)nc2cc(OC)c(OC)cc2c1-c1ccc(OC)c(OC)c1`, the melting point lay within 226 to 227 °C.

Molecule `c1ccc2c(c1)Cc1c(-c3ccsc3)n[nH]c1-2` displayed a melting point of 219 to 220 °C.

With `CCOC(=O)C1C(=O)N(c2ccc(Cl)c(Cl)c2)N=C1C` (centres undefined), the melting point was in the range of 147 to 148 °C.

`CC(=O)c1nn(-c2c(Cl)cc(C(F)(F)F)cc2Cl)c(N)c1S(=O)(=O)c1ccc(Cl)cc1` yielded a melting point of 158 °C.

`CC(C)(C)NC(=O)c1cnc(Cl)cc1-c1ccc(F)cc1` returned a melting point of 168 to 173 °C.

As to `Cc1nc(Br)n(C)c1-c1nc(C2CC2)no1`, the melting point was found to be 81 °C.

Take `COC(=O)c1ccc(OCCNC(=O)C2Cc3ccccc3N2S(=O)(=O)c2ccc(-c3cccc(C(F)(F)F)c3)cc2)c(Cl)c1` (centres undefined): the melting point fell in the range of 84 to 88 °C.

`O=C1Nc2ccccc2C2=NC(CN3CCN(c4ccccc4)CC3)CN12` (centres undefined): the melting point was 257 to 258 °C.

As for `c1ccc(CSc2nc3nc(-c4ccccc4)cc(-c4ccccc4)n3n2)cc1`, the melting point lay within 122 to 124 °C.

`CC(C)(O)c1cc(Br)cnc1N` showed a melting point of 107 to 108 °C.

Broadly, the melting point is the temperature, or range, at which the solid turns liquid.
